In US7396844B1, “Benzamidine derivatives” (Ajinomoto Co., Inc., priority 1997, dated 2008):
Where a name gives a salt, the structure may show the parent alone. Read-outs that look alike come from different tables or passages of the source.

Tests used:
[1] = molecular target: T1, activated human blood coagulation factor X (Homo sapiens, UniProt P00742); test: Determination of activity of inhibiting the activated blood coagulation factor X; assay type: biochemical; conditions: for IC50: read-out: Activity of inhibiting activated blood coagulation factor X (pIC50) (converted)
T1 construct: purchased Enzyme Research Co
Description: 130 μl of 100 mM Tris-HCl buffer adjusted to pH 8.4 was added to 10 μl of an aqueous solution of a compound to be tested. Then 10 μl of a 0.5 unit/ml solution of activated human blood coagulation factor X (a product of Enzyme Research Co.) in Tris-HCl buffer hydrochloride of pH 8.4 was added to the resultant mixture. After the incubation at room temperature for 10 minutes, 50 μl of a solution of N-benzoyl-L-isoleucyl-L-glutamyl-glycyl-L-arginyl-p-nitroanilide hydrochloride (a product of Peptide Institute, Inc.) adjusted to 0.8 mM with Tris-HCl buffer (pH 8.4) was added thereto. The absorbance was determined and then the initial reaction rate was determined. A control was prepared in the same manner as that described above except that the solution of the compound to be tested was replaced with 10 μl of Tris-HCl buffer adjusted to pH 8.4.

[2] = molecular target: T2, human thrombin (Homo sapiens, UniProt P00734); test: Determination of thrombin-inhibiting activity; assay type: biochemical; conditions: for IC50: read-out: Thrombin-inhibiting activity (pIC50) (converted)
T2 construct: human thrombin (a product of SIGMA Co.); purchased SIGMA Co
Description: 130 μl of 100 mM Tris-HCl buffer adjusted to pH 8.4 was added to 10 μl of an aqueous solution of a test compound. Then 10 μl of a solution of human thrombin (a product of SIGMA Co.) adjusted to 2 units/ml with Tris-HCl buffer of pH 8.4 was added to the resultant mixture. […] The absorbance was determined and then the initial reaction rate was determined. A control was prepared in the same manner as that described above except that the solution of the compound to be tested was replaced with 10 μl of tris hydrochloride buffer adjusted to pH 8.4.

[3] = Table 1, negative logarithm of concentration inhibiting 50% of initial rate, Tris-HCl pH 8.4, room temperature
[4] = Table 1, negative logarithm of concentration inhibiting 50% of initial rate, substrate S-2238, Tris-HCl pH 8.4
[5] = Table 2, same manner as Example 93
[6] = Table 2, same manner as Example 94

T1 sequence (P00742 235-488 limits assumed): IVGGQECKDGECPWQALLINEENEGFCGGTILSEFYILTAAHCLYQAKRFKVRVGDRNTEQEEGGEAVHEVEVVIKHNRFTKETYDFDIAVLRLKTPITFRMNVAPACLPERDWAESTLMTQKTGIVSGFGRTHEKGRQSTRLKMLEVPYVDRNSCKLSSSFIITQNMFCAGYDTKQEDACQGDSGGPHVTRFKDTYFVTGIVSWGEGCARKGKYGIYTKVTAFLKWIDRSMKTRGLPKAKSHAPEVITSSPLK
T1 sequence (P00742 41-179 partner limits assumed): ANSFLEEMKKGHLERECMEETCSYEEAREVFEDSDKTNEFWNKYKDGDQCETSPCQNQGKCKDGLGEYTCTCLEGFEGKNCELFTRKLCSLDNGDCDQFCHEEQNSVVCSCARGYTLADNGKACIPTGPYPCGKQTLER

Compound	IC50 [1, 3]	IC50 [2, 4]	also measured
N=C(N)c1ccc(NC(=O)CCCOc2cccc(C(=N)N)c2)cc1 [Compound of Ex. 67, 4-(3-amidinophenoxy)-N-(4-amidinophenyl)butyramide bistrifluoroacetate]	0.316 µM	316 µM	
CC(=N)N1CCC(Oc2ccc(C[C@@H](COc3cccc(C(=N)N)c3)NS(=O)(=O)c3ccc(P(=O)(O)O)cc3)cc2)CC1.O=C(O)C(F)(F)F.O=C(O)C(F)(F)F [Compound of Ex. 74]			Activity of inhibiting activated blood coagulation factor X (pIC50) [1, 3]: 7.6; Thrombin-inhibiting activity (pIC50) [2, 4]: <3.7
CC(=N)N1CCC(Oc2ccc(C[C@@H](COc3cccc(C(=N)N)c3)NS(=O)(=O)c3ccc4ccccc4c3)cc2)CC1 [Compound of Ex. 162, 3-[(2S)-2-(2-naphthalenesulfonylamino)-3-[4-(1-acetimidoyl-4-piperidyloxy)phenyl]propoxy]benzamidine bistrifluoroacetate]			IC50 [1, 5]: 0.251 µM; IC50 [2, 6]: 39.8 µM
N=C(N)c1ccc(C(=S)NCCOc2cccc(C(=N)N)c2)cc1 [Compound of Ex. 1, N-[2-(3-amidinophenoxy)ethyl]-4-amidinobenzthioamide bistrifluoroacetate]	0.398 µM	398 µM	
N=C(N)c1cccc(OC[C@@H](CC(=O)O)NC(=O)c2ccc(N3CCCC3)cc2)c1 [Compound of Ex. 58, (3R)-4-(3-amidinophenoxy)-3-[4-(pyrrolidine-1-yl)benzoylamino]butyric acid trifluoroacetate]	0.0251 µM	> 1000 µM	
N=C(N)c1cccc(OCCNC(=O)c2ccc(/C=C/c3ccncc3)cc2)c1 [Compound of Ex. 10, N-[2-(3-amidinophenoxy)ethyl]-4-[(E)-2-(pyridine-4-yl)vinyl]benzamide bistrifluoroacetate]	0.1 µM	126 µM	
N=C(N)c1ccc(C(=O)N[C@H](CCC(=O)O)COc2cccc(C(=N)N)c2)cc1 [Compound of Ex. 121, (4R)-4-(4-amidinobenzoylamino)-5-(3-amidinophenoxy)pentanoic acid bistrifluoroacetate]			IC50 [1, 5]: 0.0501 µM; IC50 [2, 6]: > 1000 µM
N=C(N)c1ccc(C(=O)N[C@@H](COc2cccc(C(=N)N)c2)Cc2ccc(C(=O)O)cc2)cc1 [Compound of Ex. 90, 4-[(2R)-2-(4-amidinobenzoylamino)-3-(3-amidinophenoxy)propyl]benzoic acid bistrifluoroacetate]	0.0398 µM	> 251 µM	
N=C(N)c1ccc(CC(=O)C(=O)O)c(OCCNC(=O)c2ccc(N3CCCC3)cc2)c1 [Compound of Ex. 82, 3-[4-amidino-2-[2-[4-(pyrrolidine-1-yl)benzoylamino]ethoxy]phenyl]-2-oxopropionic acid trifluoroacetate]	0.0251 µM	6.31 µM	
CCOC(=O)C[C@H](COc1cccc(C(=N)N)c1)NC(=O)c1ccc(N2CCCC2)cc1 [Compound of Ex. 59, ethyl (3R)-4-(3-amidinophenoxy)-3-[4-(pyrrolidine-1-yl)benzoylamino]butyrate trifluoroacetate]	0.0398 µM	15.8 µM	
N=C(N)c1ccc(C(=O)N[C@@H](COc2cccc(C(=N)N)c2)CC(=O)O)cc1 [Compound of Ex. 119, (3R)-3-(4-amidinobenzoylamino)-4-(3-amidinophenoxy)butanoic acid bistrifluoroacetate]			IC50 [1, 5]: 0.0251 µM; IC50 [2, 6]: > 1000 µM
N=C(N)c1ccc(C(=O)N(CCOc2cccc(C(=N)N)c2)Cc2ccccc2)cc1 [Compound of Ex. 114, N-[2-(3-amidinophenoxy)ethyl]-N-phenylmethyl-4-amidinobenzamide bistrifluoroacetate]			IC50 [1, 5]: 0.0501 µM; IC50 [2, 6]: 79.4 µM
CCS(=O)(=O)N[C@H](COc1cccc(C(=N)N)c1)Cc1ccc(OC2CCN(C(C)=N)CC2)cc1 [Compound of Ex. 160, 3-[(2S)-2-(ethanesulfonylamino)-3-[4-(1-acetimidoyl-4-piperidyloxy)phenyl]propoxy]benzamidine bistrifluoroacetate]			IC50 [1, 5]: 0.316 µM; IC50 [2, 6]: 158 µM
N=C(N)c1cccc(OCCNC(=O)c2cccc(C(=N)N)c2)c1 [Compound of Ex. 96, N-[2-(3-amidinophenoxy)ethyl]-3-amidinobenzamide bistrifluoroacetate]			IC50 [1, 5]: 1.58 µM; IC50 [2, 6]: > 1000 µM
N-[2-(3-amidinophenoxy)ethyl]-1-(4-pyridyl)piperidine-4-carboxyamide bistrifluoroacetate [Compound of Ex. 24]			Activity of inhibiting activated blood coagulation factor X (pIC50) [1, 3]: 6.5; Thrombin-inhibiting activity (pIC50) [2, 4]: 3.2
CN(C)C(=O)c1ccc(C(=O)N[C@@H](COc2cccc(C(=N)N)c2)CC(=O)O)cc1 [Compound of Ex. 56, (3R)-4-(3-amidinophenoxy)-3-[(4-dimethylcarbamoylbenzoyl)amino]butyric acid trifluoroacetate]	0.0158 µM	> 1000 µM	
CC(=N)N1CCC(Oc2ccc(C(=O)NCCOc3cc(C(=N)N)ccc3CC(=O)C(=O)O)cc2)CC1 [Compound of Ex. 79, 3-[4-amidino-2-[2-[4-(1-acetimidoyl-4-piperidyloxy)benzoylamino]ethoxy]phenyl]-2-oxopropionic acid bistrifluoroacetate]	0.02 µM	25.1 µM	
N=C(N)c1ccc(CC(=O)C(=O)O)c(OCCNC(=O)c2ccc(CC3CCNCC3)cc2)c1 [Compound of Ex. 81, 3-[4-amidino-2-[2-[4-(4-piperidylmethyl)benzoylamino]ethoxy]phenyl]-2-oxopropionic acid bistrifluoroacetate]	0.0794 µM	31.6 µM	

The next lines start with results.

IC50 [1, 3]	IC50 [2, 4]	Compound	also measured
0.0251 µM		CN(C)C(=O)c1ccc(C(=O)NCCOc2cccc(C(=N)N)c2)cc1 [Compound of Ex. 3, N-[2-(3-amidinophenoxy)ethyl]-4-(N,N-dimethylcarbamoyl)benzamide trifluoroacetate]	
0.0126 µM	39.8 µM	CN(C)C(=O)c1ccc(C(=O)NCCOc2cc(C(=N)N)ccc2CC(=O)C(=O)O)cc1 [Compound of Ex. 80, 3-[4-amidino-2-[2-[4-(dimethylcarbamoyl)benzoylamino]ethoxy]phenyl]-2-oxo-propionic acid trifluoroacetate]	
0.02 µM	50.1 µM	N=C(N)c1cccc(OCCNC(=O)c2ccc(C(=O)N3CCCC3)cc2)c1 [Compound of Ex. 9, N-[2-(3-amidinophenoxy)ethyl]-4-(1-pyrrolidinecarbonyl)benzamide trifluoroacetate]	
0.0501 µM	20 µM	N=C(N)c1cccc(OCCNC(=O)c2ccc(CCc3ccncc3)cc2)c1 [Compound of Ex. 14, N-[2-(3-amidinophenoxy)ethyl]-4-[2-(pyridine-4-yl)ethyl]benzamide bistrifluoroacetate]	
0.0501 µM	25.1 µM	CCOC(=O)C[C@H](COc1cccc(C(=N)N)c1)NC(=O)c1ccc(-c2ccccc2)cc1 [Compound of Ex. 54, ethyl (3R)-3-[(biphenyl-4-carbonyl)amino]-4-(3-amidinophenoxy)butyrate trifluoroacetate]	
0.251 µM	50.1 µM	N=C(N)c1cccc(OCCNC(=O)c2ccc(CC3CCNCC3)cc2)c1 [Compound of Ex. 43, N-[2-(3-amidinophenoxy)ethyl]-4-[(piperidine-4-yl)methyl]benzamide bistrifluoroacetate]	
0.0501 µM	39.8 µM	N=C(N)c1cccc(OCCNC(=O)c2ccc(N3CCCC3)cc2)c1 [Compound of Ex. 18, N-[2-(3-amidinophenoxy)ethyl]-4-(pyrrolidine-1-yl)benzamide trifluoroacetate]	
0.0501 µM	> 1000 µM	N=C(N)c1ccc(C(=O)N[C@H](CCOc2cccc(C(=N)N)c2)C(=O)O)cc1 [Compound of Ex. 92, (2R)-2-(4-amidinobenzoylamino)-4-(3-amidinophenoxy)butanoic acid bistrifluoroacetate]	
0.0794 µM		CN(C)C(=N)c1ccc(C(=O)NCCOc2cccc(C(=N)N)c2)cc1 [Compound of Ex. 7, N-[2-(3-amidinophenoxy)ethyl]-4-(N,N-dimethylamidino)benzamide bistrifluoroacetate]	
0.0631 µM		CN(C)C(=O)c1ccc(C(=O)CCCOc2cccc(C(=N)N)c2)cc1 [Compound of Ex. 64, 4-[4-(3-amidinophenoxy)butyryl]-N,N-dimethylbenzamide trifluoroacetate]	
